# In patent US10076572B2, “Photodynamic therapy for treating Clostridium difficile infection using chitosan and tetracycline” (priority 2015, dated 2018):
# Values joined by “and” are separate entries in the source; they are usually repeats but may differ in a detail not shown here. Equal entries are not always repeated.
# Tests used:
# [1] = test system: C. difficile; experiment: Synergistic photodynamic bactericidal activity (PDT with UVA), colony-forming units; type: cell-based, Clostridium difficile (KCTC 5009); conditions: for Log10 CFU/mL (mean ± SD, n = 3): UVA
# Description: The standard strain of Clostridium difficile was provided by Korean Collection for Type Cultures (C. difficile, KCTC 5009). C. difficile was cultured at 37° C. in a standard anaerobic condition on Clostridia reinforced agar (Oxoid, Cambridge, CB5 8BZ, UK).
# Tetracycline, chitosan (low molecular weight), and ethidium bromide monoazide (EMA) were purchased from Sigma (Sigma Chemical Co., St. Louis, Mo.). A stock solution of tetracycline was prepared in water at a concentration of 10 mg/mL and stored for a maximum of 2 weeks at 4° C. in the dark before use. A stock solution of chitosan (1% w/v) was prepared in 1% acetic acid and used within one month. The light source for UVA was lamp (315-400 nm) for treatment of psoriasis (UV801KL, Waldmann Medical division, Germany). The irradiation procedure was performed in a dark and closed box and C. difficile containing plates were placed at a distance of 10 cm from the light source.
# Based on a modification of the method of Tegos (G. P. Tegos, M. R. Hamblin. Phenothiazinium bactericidal photosensitizers are substrates of bacterial multidrug resistance pumps. Antimicrob. Agents Chemother. 50 (2006)196-203.), C. difficile that had been stored at −70° C. was cultured in Clostridial agar medium for 3 days.
# After successive subcultures for two days, the cells were collected and suspended in PBS at a concentration of 10^8 cells/mL. The cell suspension was exposed to tetracycline alone at concentrations of 0.05 mg/mL, 0.1 mg/mL, 0.5 mg/mL and 1 mg/mL, or to 0.0125% chitosan containing TC at a concentration of 0.05 mg/mL, 0.1 mg/mL, 0.5 mg/mL and 1 mg/mL for 30 min.
# After samples were washed twice with PBS, the bacterial cell suspension was dispensed at a volume of 1000 μL in a plate for irradiation for 5, 10, 20 and 30 min. After irradiation, cells were serially diluted tenfold in PBS to give dilutions of 10^−1 to 10^−8 of the original concentrations, and a 10 μL aliquot of each dilution was spotted on a Clostridial agar plate. After 2 days incubation, the colonies were counted to obtain the number of colony-forming units. C. difficile without treatment with TC, chitosan and light served as the control.
# [2] = test system: C. difficile; experiment: EMA-qPCR analysis of C. difficile DNA (16S rRNA gene) to evaluate cell death and DNA damage; type: cell-based, Clostridium difficile (KCTC 5009); conditions: UVA + TC (0.5 mg/mL), UVA irradiation 30 min
# [3] = TC 0.05 mg/mL+UVA, after 30 min irradiation
# [4] = TC 0.1 mg/mL+UVA, after 30 min irradiation
smiles,measurement,setting,value
"CN(C)[C@@H]1C(O)=C(C(N)=O)C(=O)[C@@]2(O)C(O)=C3C(=O)c4c(O)cccc4[C@@](C)(O)[C@H]3C[C@@H]12 [TC, tetracycline]","Log10 CFU/mL (mean ± SD, n = 3)","[1]; 0.05 mg/mL TC, irradiation 0 min",8.11 ± 0.48 Log10 CFU/mL
same,"Log10 CFU/mL (mean ± SD, n = 3)","[1]; 0.05 mg/mL TC, irradiation 5 min",8.11 ± 0.78 Log10 CFU/mL
same,"Log10 CFU/mL (mean ± SD, n = 3)","[1]; 0.05 mg/mL TC, irradiation 10 min",8.13 ± 0.40 Log10 CFU/mL
same,"Log10 CFU/mL (mean ± SD, n = 3)","[1]; 0.05 mg/mL TC, irradiation 20 min",8.11 ± 0.67 Log10 CFU/mL
same,"Log10 CFU/mL (mean ± SD, n = 3)","[1]; 0.05 mg/mL TC, irradiation 30 min",7.14 ± 0.33 Log10 CFU/mL
same,"Log10 CFU/mL (mean ± SD, n = 3)","[1]; 0.1 mg/mL TC, irradiation 0 min",8.03 ± 0.39 Log10 CFU/mL
same,"Log10 CFU/mL (mean ± SD, n = 3)","[1]; 0.1 mg/mL TC, irradiation 5 min",8.11 ± 0.11 Log10 CFU/mL
same,"Log10 CFU/mL (mean ± SD, n = 3)","[1]; 0.1 mg/mL TC, irradiation 10 min",8.13 ± 0.53 Log10 CFU/mL
same,"Log10 CFU/mL (mean ± SD, n = 3)","[1]; 0.1 mg/mL TC, irradiation 20 min",8.11 ± 0.21 Log10 CFU/mL
same,"Log10 CFU/mL (mean ± SD, n = 3)","[1]; 0.1 mg/mL TC, irradiation 30 min",7.12 ± 0.38 Log10 CFU/mL
same,"Log10 CFU/mL (mean ± SD, n = 3)","[1]; 0.5 mg/mL TC, irradiation 0 min",8.03 ± 0.48 Log10 CFU/mL
same,"Log10 CFU/mL (mean ± SD, n = 3)","[1]; 0.5 mg/mL TC, irradiation 5 min",6.02 ± 0.76 Log10 CFU/mL
same,"Log10 CFU/mL (mean ± SD, n = 3)","[1]; 0.5 mg/mL TC, irradiation 10 min",5.12 ± 0.10 Log10 CFU/mL
same,"Log10 CFU/mL (mean ± SD, n = 3)","[1]; 0.5 mg/mL TC, irradiation 20 min",5.11 ± 0.27 Log10 CFU/mL
same,"Log10 CFU/mL (mean ± SD, n = 3)","[1]; 0.5 mg/mL TC, irradiation 30 min",5.11 ± 0.23 Log10 CFU/mL
same,"Log10 CFU/mL (mean ± SD, n = 3)","[1]; 1 mg/mL TC, irradiation 0 min",8.03 ± 0.39 Log10 CFU/mL
same,"Log10 CFU/mL (mean ± SD, n = 3)","[1]; 1 mg/mL TC, irradiation 5 min",5.21 ± 0.11 Log10 CFU/mL
same,"Log10 CFU/mL (mean ± SD, n = 3)","[1]; 1 mg/mL TC, irradiation 10 min",4.11 ± 0.23 Log10 CFU/mL
same,"Log10 CFU/mL (mean ± SD, n = 3)","[1]; 1 mg/mL TC, irradiation 20 min",4.11 ± 0.21 Log10 CFU/mL
same,"Log10 CFU/mL (mean ± SD, n = 3)","[1]; 1 mg/mL TC, irradiation 30 min",0 Log10 CFU/mL
same,decrease of viable cells,[1]; [3],10 times
same,viable cells,[1]; [3],1.12×10^7
same,decrease of viable cells,[1]; [4],10 times
same,viable cells,[1]; [4],1.14×10^7
same,viable cells,"[1]; TC 0.5 mg/mL+UVA, after 5 min irradiation",1.10×10^6
same,viable cells,"[1]; TC 0.5 mg/mL+UVA, after 10 min irradiation",1.12×10^5
same,viable cells,"[1]; TC 0.5 mg/mL+UVA, after 20 min irradiation",1.11×10^5
same,viable cells,"[1]; TC 0.5 mg/mL+UVA, after 30 min irradiation",1.13×10^5
same,viable cells,"[1]; TC 1.0 mg/mL+UVA, after 5 min irradiation",1.21×10^5
same,viable cells,"[1]; TC 1.0 mg/mL+UVA, after 10 min irradiation",1.11×10^4
same,viable cells,"[1]; TC 1.0 mg/mL+UVA, after 20 min irradiation",1.13×10^4
same,viable cells,"[1]; TC 1.0 mg/mL+UVA, after 30 min irradiation",0
same,"Ct value (EMA-qPCR, 16S rRNA)",[2],23.026±0.101 and 23.03 ± 0.101
